Biological target: T1, human BTK (Homo sapiens, UniProt Q06187)
T1 construct: GST (Glutathione-S-Transferase) (cleaved yes); made in house; host or cells: Spodoptera frugiperda Sf9 cells (baculovirus, Bac-to-Bac)
Assay: BTK inhibition assay: BTK-mediated phosphorylation of FAM-labeled substrate 5-FAM-EEPLYWSFPAKKK-NH2 (Caliper LC-3000)
Assay type: biochemical
Conditions: pIC50 = -log(IC50), IC50 molar; residues 382 to 659 of human BTK; incubated at room temperature for 60 minutes; larger values represent higher potency
Description: The activity of compounds as BTK inhibitors may be determined by a variety of methods, including in vitro and in vivo methods.
This construct engineers an in-frame translational fusion with the Glutathione-S-Transferase (GST) protein for use in affinity purification. The fusion protein derived from this construct contains a protease recognition sequence to liberate the BTK from the GST affinity tag. High-titer baculoviral stocks, generated using the Bac-to-Bac® system (Invitrogen), are used to express the recombinant protein in Spodoptera frugiperda Sf9 cells in 10 L Wave bags. Recombinant proteins are isolated from cellular extracts by passage over Glutathione Sepharose 4B (GE Healthcare) and the BTK moiety is released from the GST affinity tag by treatment with PreScission protease. The BTK recombinant protein is further purified by size exclusion chromatography (HiLoad 16/60 Superdex 200, GE Healthcare) in a buffer containing 20 mM Hepes (pH 7.4), 50 mM NaCl, 10 mM MgCl2, 0.25 mM TCEP and 0.1 mM EDTA. The purity of the fractions is assessed by SDS PAGE and the peak protein fractions are pooled and concentrated using Amicon Ultra-15 Centrifugal Filter Devices (Millipore).
The inhibitory properties of compounds relative to BTK is determined using a black 384-well-plate format in a buffer which contains 50 mM Hepes, 10 mM NaCl, 10 mM MgCl2, 0.2 mM EDTA, 0.01% Brij35®, 1 mM DTT, and 0.1 mg/mL BSA at pH 7.3. The test compound is prepared in DMSO using 2-fold serial dilutions for 11 data points, which are added to the buffer so that each dilution contains 3% DMSO. […] The reaction mixtures are incubated at room temperature for 60 minutes and then quenched by adding 25 μL of 50 mM EDTA. To quantify the fluorescent-labeled substrate and product following reaction, the test plate is loaded on a Caliper LC-3000, which measures percent of conversion by microfluidic-based separation.
The compounds were tested in accordance with the assay described on page 34 of the specification.

T1 sequence (Q06187 382-659): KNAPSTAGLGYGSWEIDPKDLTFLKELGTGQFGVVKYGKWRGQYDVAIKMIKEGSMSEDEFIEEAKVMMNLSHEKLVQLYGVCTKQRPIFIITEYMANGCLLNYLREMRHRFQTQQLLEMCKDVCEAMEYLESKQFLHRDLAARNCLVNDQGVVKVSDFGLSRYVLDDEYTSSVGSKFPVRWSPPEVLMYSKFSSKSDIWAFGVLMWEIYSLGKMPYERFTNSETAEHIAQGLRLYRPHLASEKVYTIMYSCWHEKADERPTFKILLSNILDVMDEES

Structure (SMILES) | IC50 [nM]
Cc1ccc2c(N)c(C(N)=O)nnc2c1-c1ccc2c(cnn2C)c1 [Example 25, 4-amino-7-methyl-8-(1-methyl-1H-indazol-5-yl)cinnoline-3-carboxamide] | 31.6
Cn1cnc2cc(-c3cccc4c(N)c(C(N)=O)nnc34)ccc21 [Example 12, 4-amino-8-(1-methyl-1H-benzo[d]imidazol-5-yl)cinnoline-3-carboxamide] | 15800
NC(=O)c1nnc2c(-c3ccc4c(c3)ncn4C3CCCCC3)cccc2c1N [Example 18, 4-amino-8-(1-cyclohexyl-1H-benzo[d]imidazol-5-yl)cinnoline-3-carboxamide] | 1260
Cc1ccc2c(N)c(C(N)=O)nnc2c1-c1cc(C)c2[nH]ncc2c1 [Example 33, 4-amino-7-methyl-8-(7-methyl-1H-indazol-5-yl)cinnoline-3-carboxamide] | 50.1
NC(=O)c1nnc2c(-c3ccc4c(c3)CNC4=O)cccc2c1N [Example 122] | 20
Cc1ccc2c(N)c(C(N)=O)nnc2c1-c1ccc2cncn2c1 [Example 113, 4-amino-8-(imidazo[1,5-a]pyridin-6-yl)-7-methylcinnoline-3-carboxamide] | 20
CCc1ccc2c(N)c(C(N)=O)nnc2c1-c1ccc2c(c1)CNC2=O [Example 129, 4-amino-7-ethyl-8-(1-oxoisoindolin-5-yl)cinnoline-3-carboxamide] | 5.01
COc1ccc2c(N)c(C(N)=O)nnc2c1-c1ccc2cn[nH]c2c1 [Example 41, 4-amino-8-(1H-indazol-6-yl)-7-methoxycinnoline-3-carboxamide] | 25.1
NC(=O)c1nnc2c(-c3ccc4nc(Nc5ccccc5)[nH]c4c3)cccc2c1N [Example 87, 4-amino-8-(2-(phenylamino)-1H-benzo[d]imidazol-6-yl)cinnoline-3-carboxamide] | 100
COc1cc(C)c(-c2ccc3cn[nH]c3c2)c2nnc(C(N)=O)c(N)c12 [Example 42, 4-amino-8-(1H-indazol-6-yl)-5-methoxy-7-methylcinnoline-3-carboxamide] | 10
COc1ccc2c(N)c(C(N)=O)nnc2c1-c1ccc2[nH]ncc2c1 [Example 51, 4-amino-8-(1H-indazol-5-yl)-7-methoxycinnoline-3-carboxamide] | 12.6
Cn1ncc2ccc(-c3cccc4c(N)c(C(N)=O)nnc34)cc21 [Example 1, 4-amino-8-(1-methyl-1H-indazol-6-yl)cinnoline-3-carboxam] | 1580
Cc1ccc(CNc2nc3ccc(-c4cccc5c(N)c(C(N)=O)nnc45)cc3[nH]2)cc1 [Example 95, 4-amino-8-(2-(4-methylbenzylamino)-1H-benzo[d]imidazol-6-yl)cinnoline-3-carboxamide] | 63.1
CN(Cc1ccccc1)c1nc2ccc(-c3cccc4c(N)c(C(N)=O)nnc34)cc2[nH]1 [Example 92, 4-amino-8-(2-(benzyl(methyl)amino)-1H-benzo[d]imidazol-6-yl)cinnoline-3-carboxamide] | 1000
NC(=O)c1nnc2c(-c3ccc4c(c3)CNC4=O)ccc(F)c2c1N [Example 125, 4-amino-5-fluoro-8-(1-oxoisoindolin-5-yl)cinnoline-3-carboxamide] | 39.8
Cc1ccc2c(N)c(C(N)=O)nnc2c1-c1ccc2c(F)n[nH]c2c1 [Example 100, 4-amino-8-(3-fluoro-1H-indazol-6-yl)-7-methylcinnoline-3-carboxamide] | 25.1
Cn1cnc2cc(-c3cccc4c(N)c(C(N)=O)nnc34)cnc21 [Example 13, 4-amino-8-(3-methyl-3H-imidazo[4,5-b]pyridin-6-yl)cinnoline-3-carboxamide] | 39800
Cc1ccc2c(N)c(C(N)=O)nnc2c1-c1ccc2nc[nH]c2c1 [Example 22, 4-amino-8-(1H-benzo[d]imidazol-6-yl)-7-methylcinnoline-3-carboxamide] | 15.8
NC(=O)c1nnc2c(-c3ccc4c(c3)CN(c3ccccc3)C4=O)cccc2c1N [Example 121, 4-amino-8-(1-oxo-2-phenylisoindolin-5-yl)cinnoline-3-carboxamide] | 126
Cc1ccc2c(N)c(C(N)=O)nnc2c1-c1ccc2cnccc2c1 [Example 58, 4-amino-8-(isoquinolin-6-yl)-7-methylcinnoline-3-carboxamide] | 50.1

Structure (SMILES) | IC50 [nM]
COc1ccc(-c2nc3ccc(-c4cccc5c(N)c(C(N)=O)nnc45)cc3[nH]2)cc1 [Example 74, 4-amino-8-(2-(4-methoxyphenyl)-1H-benzo[d]imidazol-6-yl)cinnoline-3-carboxamide] | 79.4
COc1cc2[nH]ncc2cc1-c1cccc2c(N)c(C(N)=O)nnc12 [Example 103, 4-amino-8-(6-methoxy-1H-indazol-5-yl)cinnoline-3-carboxamide] | 3.98
COc1ccc2c(N)c(C(N)=O)nnc2c1-c1ccc2nc[nH]c2c1 [Example 46, 4-amino-8-(1H-benzo[d]imidazol-6-yl)-7-methoxycinnoline-3-carboxamide] | 63.1
Cc1ccc2c(N)c(C(N)=O)nnc2c1-c1ccc2ncn(C)c2c1 [Example 23, 4-amino-7-methyl-8-(1-methyl-1H-benzo[d]imidazol-6-yl)cinnoline-3-carboxamide] | 50.1
NC(=O)c1nnc2c(-c3ccc4cn[nH]c4c3)c(Cl)ccc2c1N [Example 54, 4-amino-7-chloro-8-(1H-indazol-6-yl)cinnoline-3-carboxamide] | 15.8
NC(=O)c1nnc2c(-c3ccc4nc(CC5CCOCC5)[nH]c4c3)cccc2c1N [Example 81, 4-amino-8-(2-((tetrahydro-2H-pyran-4-yl)methyl)-1H-benzo[d]imidazol-6-yl)cinnoline-3-carboxamide] | 2510
Cc1cc(C)c2c(N)c(C(N)=O)nnc2c1-c1ccc2cn[nH]c2c1 [Example 53, 4-amino-8-(1H-indazol-6-yl)-5,7-dimethylcinnoline-3-carboxamide] | 50.1
CCn1cnc2ccc(-c3c(C)ccc4c(N)c(C(N)=O)nnc34)cc21 [Example 131, 4-amino-8-(1-ethyl-1H-benzo[d]imidazol-6-yl)-7-methylcinnoline-3-carboxamide] | 100
Cc1cc(F)c2c(N)c(C(N)=O)nnc2c1-c1ccc2cn[nH]c2c1 [Example 56, 4-amino-5-fluoro-8-(1H-indazol-6-yl)-7-methylcinnoline-3-carboxamide] | 12.6
NC(=O)c1nnc2c(-c3ccc4nc(-c5cccs5)[nH]c4c3)cccc2c1N [Example 79, 4-amino-8-(2-(thiophen-2-yl)-1H-benzo[d]imidazol-6-yl)cinnoline-3-carboxamide] | 316
CCc1ccc2c(N)c(C(N)=O)nnc2c1-c1ccc2cn[nH]c2c1 [Example 61, 4-amino-7-ethyl-8-(1H-indazol-6-yl)cinnoline-3-carboxamide] | 10
NC(=O)c1nnc2c(N3CCc4[nH]ncc4C3)cccc2c1N [Example 86, 4-amino-8-(6,7-dihydro-1H-pyrazolo[4,3-c]pyridin-5(4H)-yl)cinnoline-3-carboxamide] | 2000
Cc1nn(C)c2ccc(-c3cccc4c(N)c(C(N)=O)nnc34)cc12 [Example 37, 4-amino-8-(1,3-dimethyl-1H-indazol-5-yl)cinnoline-3-carboxamide] | 3980
NC(=O)c1nnc2c(-c3cc4[nH]ncc4cc3Cl)ccc(F)c2c1N [Example 107, 4-amino-8-(5-chloro-1H-indazol-6-yl)-5-fluorocinnoline-3-carboxamide] | 15.8
CC1CCC(Nc2nc3ccc(-c4cccc5c(N)c(C(N)=O)nnc45)cc3[nH]2)CC1 (stereo not shown) [Example 91, 4-amino-8-(2-(4-methylcyclohexylamino)-1H-benzo[d]imidazol-6-yl)cinnoline-3-carboxamide] | 79.4
NC(=O)c1nnc2c(-c3ccc4nccn4c3)cccc2c1N [Example 10, 4-amino-8-(imidazo[1,2-a]pyridin-6-yl)cinnoline-3-carboxamide] | 631
Cc1cc2cn[nH]c2cc1-c1ccc(F)c2c(N)c(C(N)=O)nnc12 [Example 43, 4-amino-5-fluoro-8-(5-methyl-1H-indazol-6-yl)cinnoline-3-carboxamide] | 6.31
CC(C)(O)CCN1Cc2cc(-c3cccc4c(N)c(C(N)=O)nnc34)ccc2C1=O [Example 127, 4-amino-8-(2-(3-hydroxy-3-methylbutyl)-1-oxoisoindolin-5-yl)cinnoline-3-carboxamide] | 25.1
Cc1ccc2c(N)c(C(N)=O)nnc2c1-c1ccc2cn(C)nc2c1 [Example 52, 4-amino-7-methyl-8-(2-methyl-2H-indazol-6-yl)cinnoline-3-carboxamide] | 2510
Cc1ccc2c(N)c(C(N)=O)nnc2c1-c1ccc2cn[nH]c2c1F [Example 104, 4-amino-8-(7-fluoro-1H-indazol-6-yl)-7-methylcinnoline-3-carboxamide] | 31.6
